pIC50: −log10 of the molar value.
Biological target: T1, human TRPM8 (Homo sapiens, UniProt Q7Z2W7)
T1 construct: expressed in transfected cells
Assay: Menthol-induced Ca2+ influx in HEK293 cells stably expressing human TRPM8
Assay type: cell-based
Conditions: 30 microM menthol, read-out: IC50 against TRPM8
Experimental: Measurement of the Menthol-Induced Ca^2+ Influx in HEK293 Cells Stably Expressing Human TRPM8
A cell-based Ca^2+ influx assay using HEK293 cells stably expressing human TRPM8 is used to identify the activity of compounds.
HEK293 cells stably expressing human TRPM8 are grown in T175 flasks at 37° C. in a 5% CO2 humidified incubator to about 80% confluence. Media composition consists of Dulbecco's Modified Eagle Medium (high glucose), 10% fetal calf serum (FCS), 100 units/mL Penicillin, 100 microg/mL Streptomycin and 600 microg/mL Geneticine. At 24 hours prior to assay, cells are seeded in poly-D-lysine coated 384-well plates (BD FALCON) at a density of 30,000 cells per well in culture medium and grown overnight in 5% CO2 at 37° C. On the assay day, growth media is removed and cells are loaded with 0.5 microM Fluo4-AM (Molecular Probes) and 0.005% Pluronic F-127 dissolved in assay buffer (Hank's balanced salt solution (HBSS), 19.4 mM HEPES pH 7.4, 2.5 mM Probenecid) for 1 hour at room temperature. After washing with assay buffer, the cells are preincubated with various concentrations of the compounds for 5 min. The changes in intracellular calcium concentration by addition of 30 microM menthol are monitored by the cell imaging technology by Hamamatsu Photonics Functional Drug Screening System (FDSS).
The IC50 values for compounds of the present invention are determined from 11-point dose-response studies. Curves are generated using the average of duplicate wells for each data point. Finally, the IC50 values are calculated with the best-fit dose curve determined by XLfit (ID Business Solutions Ltd.).

T1 sequence (Q7Z2W7 whole entry): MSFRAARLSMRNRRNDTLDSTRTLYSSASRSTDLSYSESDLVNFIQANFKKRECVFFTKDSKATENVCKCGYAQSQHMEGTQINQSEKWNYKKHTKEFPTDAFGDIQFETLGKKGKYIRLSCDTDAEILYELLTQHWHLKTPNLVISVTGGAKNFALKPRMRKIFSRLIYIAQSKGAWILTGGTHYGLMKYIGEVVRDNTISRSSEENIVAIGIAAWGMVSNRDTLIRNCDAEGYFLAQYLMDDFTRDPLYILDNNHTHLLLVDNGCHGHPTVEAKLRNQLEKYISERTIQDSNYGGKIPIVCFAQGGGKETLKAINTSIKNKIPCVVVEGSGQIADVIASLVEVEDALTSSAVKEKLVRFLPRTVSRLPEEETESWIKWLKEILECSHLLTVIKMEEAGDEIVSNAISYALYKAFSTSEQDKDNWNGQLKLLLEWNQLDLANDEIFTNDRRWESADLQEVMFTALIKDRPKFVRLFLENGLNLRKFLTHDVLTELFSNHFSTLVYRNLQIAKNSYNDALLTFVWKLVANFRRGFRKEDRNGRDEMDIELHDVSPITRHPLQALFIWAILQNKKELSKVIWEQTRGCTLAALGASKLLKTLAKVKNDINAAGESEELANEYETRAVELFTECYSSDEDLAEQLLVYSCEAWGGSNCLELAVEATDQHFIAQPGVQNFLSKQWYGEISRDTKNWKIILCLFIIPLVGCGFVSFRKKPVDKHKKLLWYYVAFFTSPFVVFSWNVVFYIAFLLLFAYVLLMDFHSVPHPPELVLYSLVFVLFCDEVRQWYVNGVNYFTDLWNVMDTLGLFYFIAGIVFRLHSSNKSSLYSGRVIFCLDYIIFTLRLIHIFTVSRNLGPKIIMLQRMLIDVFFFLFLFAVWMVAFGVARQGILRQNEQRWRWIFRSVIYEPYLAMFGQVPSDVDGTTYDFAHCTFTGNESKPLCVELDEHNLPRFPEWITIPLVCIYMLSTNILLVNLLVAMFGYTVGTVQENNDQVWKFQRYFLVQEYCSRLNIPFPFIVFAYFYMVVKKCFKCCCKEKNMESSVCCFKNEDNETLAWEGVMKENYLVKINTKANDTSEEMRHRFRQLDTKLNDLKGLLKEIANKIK

pIC50 | SMILES
> 7.30 | CC1=NC2(CCC(F)(F)CC2)C(=O)N1CC(=O)c1ccc(Oc2cccnn2)cc1 [Example 1]
> 7.30 | CC1=NC2(CCCCC2)C(=O)N1CC(=O)c1ccc(-n2c(C)nc3ccccc32)cc1 [Example 2, 2-methyl-3-(2-(4-(2-methyl-1H-benzo[d]imidazol-1-yl)phenyl)-2-oxoethyl)-1,3-diazaspiro[4.5]dec-1-en-4-one]
> 7.30 | CCC1=NC2(CCC(F)(F)CC2)C(=O)N1CC(=O)c1ccc(Oc2cccnn2)cc1 [Example 3, 2-ethyl-8,8-difluoro-3-(2-oxo-2-(4-(pyridazin-3-yloxy)phenyl)ethyl)-1,3-diazaspiro[4.5]dec-1-en-4-one]
> 7.00 | CC1=NC2(CCC(F)(F)CC2)C(=O)N1CC(=O)c1ccc(-c2nnccc2C)cc1 [Example 4, 8,8-difluoro-2-methyl-3-(2-(4-(4-methylpyridazin-3-yl)phenyl)-2-oxoethyl)-1,3-diazaspiro[4,5]dec-1-en-4-one]
> 7.30 | CC1=NC2(CCC(F)(F)CC2)C(=O)N1CC(=O)c1ccc(-n2c(C)nc3ccccc32)cc1 [Example 5, 8,8-difluoro-2-methyl-3-(2-(4-(2-methyl-1H-benzo[d]imidazol-1-yl)phenyl)-2-oxoethyl)-1,3-diazaspiro[4.5]dec-1-en-4-one]
> 7.30 | CC1=NC2(CCC(F)(F)CC2)C(=O)N1CC(=O)c1ccc(-n2c(C)nc3cccnc32)cc1 [Example 6, 8,8-difluoro-2-methyl-3-(2-(4-(2-methyl-3H-imidazo[4,5-b]pyridin-3-yl)phenyl)-2-oxoethyl)-1,3-diazaspiro[4.5]dec-1-en-4-one]

From patent publication US20180305341A1 (RAQUALIA PHARMA INC., priority 2015, published 2018)
